Experimental data published in patent US20250352534A1 (Tesaro, Inc., priority 2022, published 2025).
Converted amounts (≈) assume the structure as drawn. Like-named read-outs stand apart in the source and are kept apart here.

Assays:
[1] = brain penetration in mouse brain metastatic tumor model (LC-MS, MALDI IMS); type: in vivo, mice; settings: for MALDI IMS Brain Section Median, adjusted free concentration / MALDI IMS Brain Section Median, total concentration / Bulk Brain Homogenate Avg, adjusted free concentration / Bulk Brain Homogenate Avg, total concentration / concentration at 2 h: 2 hr post final dose; for Bulk Brain Homogenate Avg, adjusted free concentration / Bulk Brain Homogenate Avg, total concentration: LC-MS; for concentration at 2 h: plasma, po QD 5 days, niraparib 35 mg/kg, olaparib 50 mg/kg, read-out: Terminal Plasma Avg, total concentration
Description: Female mice (CrTac:NCr-Foxnlnu; 6 w/o) received 2.5E5 luciferase transfected human breast cancer line (MDA 231-BRM2-831) via intracardiac injection. Mice were imaged twice/week using bioluminescence imaging (BLI) to monitor tumor growth. […] Tissue collected between each imaging plane was homogenized for LC-MS bioanalysis.

physchem = settings: aqueous buffer
PAR (PARP inhibition) = settings: 17/22 patients
Description: For PD analysis, intraoperatively-collected gadolinium-enhancing tumor tissue will be sectioned into 4 similarly-sized tissue portions. Two tissue specimens will be exposed to 10 Gy of IR using a RAD2000 device and two specimens will be sham irradiated (non-irradiated). One pair of sham control and 10 Gy radiated tissue will be fixed in formalin solution for FFPE slides. The other pair will be snap-frozen for PAR ELISA assay.
A ‘functional’ PD assay examining PAR activity in the setting of ex vivo irradiation will serve as a secondary endpoint in this protocol. In the Ivy Center's CLIA-certified PD Core, FFPE embedded tumor tissue from both ex vivo irradiated and non-irradiated to assess changes in PAR, cleaved caspase 3, γH2AX and Ki67 using immunohistochemistry (IHC) assays. Alternatively, ELISA assays to quantify PAR levels will be performed using frozen lysates from the second pair of control and irradiated samples.
Evidence of PARP inhibition was assessed by 10 Gy ex vivo irradiation of surgical tissue and quantification of PARylation compared to non-irradiated control tissue.
PARP inhibition was assessed by quantification of PAR induction after 10 Gy ex vivo irradiation in surgical tissue compared to non-irradiated control tissue.

[2] = system: P-gp (Mdr1-a) and BCRP (ABCG2); experiment: in vivo; settings: male, rat, brain / plasma, intravenous; for Kp: Brain:plasma (Kp) ratio; for Kp uu: Unbound brain:plasma ratio (Kp, uu)
Procedure: (§1) At least three days prior to the start of the study, six male rats per group (total 24 rats) received surgically implanted femoral vein and carotid artery catheters for infusion of the test molecule and blood sampling, respectively. Doses were filtered prior to administration and the actual dose administered to the animals was quantified. All PK parameters were calculated based on the actual dose administered to each animal. Animals received an intravenous bolus loading dose followed by a constant intravenous infusion to maintain steady state of drug level. At the end of the infusion, animals were euthanized and brain tissues were collected. Tissue homogenates were prepared in PBS (1:4 w/v). LC-MS/MS method was used to quantitate drug concentrations. Tissue homogenate concentrations were corrected for test compound contained in residual plasma in the tissue. The tissue-to-plasma ratio was calculated by dividing corrected tissue concentration by steady-state plasma concentration. […] Data are reported as fraction unbound (Fu).

[3] = system: P-gp (P-glycoprotein/Mdr1-a) and BCRP (ABCG2); experiment: in vivo
Procedure: as §1

BCRP (ABCG2) = experiment: in vivo; settings: male, rat, brain / plasma, intravenous, BCRP knock-out rat
Procedure: as §1

P-gp (Mdr1-a) = experiment: in vivo; settings: male, rat, brain / plasma, intravenous, P-gp knock-out rat
Procedure: as §1

in vitro = settings: rat, brain homogenate
Procedure: as §1

[4] = Phase 0 Arm A tumor pharmacokinetics (LC-MS/MS) in newly-diagnosed GBM patients
Procedure: (§2) The final presurgical dose will be administered 3-5 hours or 8-10 hours before tumor resection. Assignment to time-cohorts will be random. […] In each of the two time-cohorts, tumor PK and PD analyses will be performed at the Ivy Brain Tumor Center.
(§3) For PK analysis, blood, CSF, and brain tumor tissue samples (gadolinium enhancing and non-enhancing) will be collected intraoperatively. Additional blood samples will be obtained on Day 1 pre-dose and on Day 4 (the day of the surgery) at pre-dosing (trough level), 0.5, 1, 2, 4, 6, 9-, 12-, 24-, and 48-hours post-dose.
(§4) Tumor-to-plasma ratios will be calculated. All assays and analyses will be developed, validated, and performed at Ivy Brain Tumor Center.
(§5) Tumor tissue (enhancing and nonenhancing regions), cerebrospinal fluid (CSF), and plasma were collected. […] Evidence of PARP inhibition was assessed by 10 Gy ex vivo irradiation of surgical tissue and quantification of PARylation compared to non-irradiated control tissue.
(§6) Tumor tissue (enhancing and non-enhancing regions), cerebrospinal fluid (CSF), and plasma were collected. […] PARP inhibition was assessed by quantification of PAR induction after 10 Gy ex vivo irradiation in surgical tissue compared to non-irradiated control tissue. A PK ‘trigger’ determined eligibility for the therapeutic phase 2 expansion portion of the study.

[5] = brain penetration in healthy Rhesus macaque monkeys (LC-MS, MALDI IMS); type: in vivo; settings: for Bulk Brain Homogenate, adjusted free concentration: LC-MS; for Terminal CSF / Terminal Plasma, adjusted free concentration: at necropsy; for Kp uu: male, rhesus monkey, brain homogenate / plasma, oral
Procedure: Pre-dose blood was collected daily and terminal blood, cerebrospinal fluid (CSF), and brain tissue was collected at necropsy. […] Blood, CSF, and bulk homogenates of brain tissue were analyzed by LC-MS bioanalysis.

[6] = system: cancer cells with mutant BRCA-1 and BRCA-2; settings: read-out: inhibition of proliferation CC50; cited from earlier work
[7] = system: MGMT-unmethylated newly-diagnosed glioblastoma
Description: Participants will continue receiving maintenance treatment until progression of disease, unacceptable toxicity or death, withdrawal of consent, loss to follow-up, or study termination by sponsor.
• 1. […] Expansion: Examine progression-free survival rate measured from time of surgery to date of recurrence.

[8] = clinical safety, Phase 0 and expansion phase Arm A; settings: for tolerability: glioblastoma patients
Procedure: as §6

clinical = settings: human, oral
Procedure: as §2, §3, §4, §5, §6

PARP activity = settings: read-out: inhibition of PARP activity EC50; whole cell assay; cited from earlier work
[9] = Unbound brain:plasma ratio (Kp, uu)
[10] = healthy Rhesus macaque monkeys, five days oral administration
[11] = enhancing tumor tissue / plasma
[12] = non-enhancing tumor tissue / plasma

In the case of NC(=O)c1cccc2cn(-c3ccc([C@@H]4CCCNC4)cc3)nc12 [niraparib, (3S)-3-[4-{7-(aminocarbonyl)-2H-indazol-2-yl}phenyl]piperidine], the “estimated mean Kp,uu,brain, times higher for niraparib compared to olaparib” value ([1]; BM mice) is reported as 5.6 ×, the “MALDI IMS Brain Section Median, adjusted free concentration” value ([1]; BM mice) is reported as 80 and the “MALDI IMS Brain Section Median, total concentration” value ([1]; BM mice) is reported as 473. The Bulk Brain Homogenate Avg, adjusted free concentration ([1]; BM mice) was 91 ng/g, the Bulk Brain Homogenate Avg, total concentration ([1]; BM mice) was 543 ng/g and the “MALDI IMS Brain Section Median, adjusted free concentration” value ([1]; Control mice) was 89. The “MALDI IMS Brain Section Median, total concentration” value ([1]; Control mice) was 532, the Bulk Brain Homogenate Avg, adjusted free concentration ([1]; Control mice) was 111 ng/g and the Bulk Brain Homogenate Avg, total concentration ([1]; Control mice) was 658 ng/g. For the same compound, the “estimated mean Kp,uu,brain, times higher for niraparib compared to olaparib” value ([1]; control mice) was 3.0 ×, the Kp uu at 2 h post final dose ([1]; female, CrTac:NCr-Foxnlnu, mouse, oral, BM mice, from bulk brain homogenate and terminal plasma free concentrations) was 0.18 and the Kp uu at 2 h ([1]; female, CrTac:NCr-Foxnlnu, mouse, oral, Control mice, from bulk brain homogenate and terminal plasma free concentrations) was 0.18. For the same compound, the concentration at 2 h ([1]; female, CrTac:NCr-Foxnlnu, mouse, oral, BM (brain metastases) mice) was 2540 ng/mL, the concentration at 2 h ([1]; female, CrTac:NCr-Foxnlnu, mouse, oral, Control mice) was 3100 ng/mL and the “distribution in coronal brain sections by MALDI IMS” value ([1]; mice administered niraparib) was “consistent concentrations distributed throughout the brain parenchyma with locally higher concentrations detected from tumor regions”. The solubility (physchem) was 700 to 1100 µg/mL (≈ 2180 to 3430 µM), the “patients with suppression of PAR levels after ex vivo radiation” value (PAR (PARP inhibition)) was 79% and the Kp ([2]; P-gp/BCRP double knock-out rat) was 6.3. It also gave a Kp ([2]; control rat) of 0.47, a Kp uu ([2]; P-gp/BCRP double knock-out rat) of 1.5 and a Kp uu ([2]; control rat) of 0.1. The “increase of brain tissue concentrations” value ([3]; BCRP knockout rats vs control) was less than 2 fold, the “increase of brain tissue concentrations” value ([3]; Mdr1-a (P-gp) knockout rats vs control, iv bolus plus infusion, steady state) was 9 fold and the “increase of brain tissue concentrations” value ([3]; Pgp/BCRP double knockout rats vs control) was 14 fold. It also gave a Kp (BCRP (ABCG2); Brain:plasma (Kp) ratio) of 0.64, a Kp uu (BCRP (ABCG2); [9]) of 0.15 and a Kp (P-gp (Mdr1-a); Brain:plasma (Kp) ratio) of 3.7. For the same compound, the Kp uu (P-gp (Mdr1-a); [9]) was 0.87, the fraction unbound (in vitro) was 0.04 and the “mean unbound concentration in Gd-nonenhancing tumor region” value ([4]; 200 mg, 3-5 hr cohort 1 (n=6)) was 250.8 nM. The “mean unbound concentration in Gd-nonenhancing tumor region” value ([4]; 300 mg QD 4 days, 3-5 hr cohort (n=8), interim results) was 340.9 nM, the “mean unbound concentration in Gd-nonenhancing tumor region” value ([4]; 300 mg QD 4 days, 8-12 hr cohort (n=3)) was 331.9 nM and the “mean unbound concentration in Gd-nonenhancing tumor region” value ([4]; 300 mg, 3-5 hr cohort 1 (n=20)) was 366.2 nM. For the same compound, the “mean unbound concentration in non-enhancing regions” value ([4]; 300 or 200 mg QD 4 days, 29 patients, further interim results) was 258.2 nM, the “MALDI IMS Brain Section Average, adjusted free concentration” value ([5]; Monkey 1) was “(10) ng/g” and the “Pre-Dose Plasma, total concentration” value ([5]; Monkey 1, Day 1, po daily 5 days, niraparib 6 mg/kg, olaparib 10 mg/kg) was “BQL”. The “Pre-Dose Plasma, adjusted free concentration” value ([5]; Monkey 1, Day 2) was 10 ng/mL, the “Pre-Dose Plasma, total concentration” value ([5]; Monkey 1, Day 2) was 28 ng/mL and the “Pre-Dose Plasma, adjusted free concentration” value ([5]; Monkey 1, Day 3) was 18 ng/mL. For the same compound, the “Pre-Dose Plasma, total concentration” value ([5]; Monkey 1, Day 3) was 49 ng/mL, the “Pre-Dose Plasma, adjusted free concentration” value ([5]; Monkey 1, Day 4) was 22 ng/mL and the “Pre-Dose Plasma, total concentration” value ([5]; Monkey 1, Day 4) was 59 ng/mL. For the same compound, the “Pre-Dose Plasma, adjusted free concentration” value ([5]; Monkey 1, Day 5) was “(26) ng/mL”, the “Pre-Dose Plasma, total concentration” value ([5]; Monkey 1, Day 5) was 72 ng/mL and the “Bulk Brain Homogenate, adjusted free concentration” value ([5]; Monkey 1) was “(14) ng/g”. For the same compound, the “Terminal CSF” value ([5]; Monkey 1) was 9 ng/mL, the “Terminal Plasma, adjusted free concentration” value ([5]; Monkey 1) was “(31) ng/mL” and the “Terminal Plasma, total concentration” value ([5]; Monkey 1, at necropsy after 5 daily oral doses) was 84 ng/mL. For the same compound, the “MALDI IMS Brain Section Average, adjusted free concentration” value ([5]; Monkey 2) was “(25) ng/g”, the “Pre-Dose Plasma, total concentration” value ([5]; Monkey 2, Day 1, po daily 5 days, niraparib 6 mg/kg, olaparib 10 mg/kg) was “BQL” and the “Pre-Dose Plasma, adjusted free concentration” value ([5]; Monkey 2, Day 2) was 21 ng/mL. The “Pre-Dose Plasma, total concentration” value ([5]; Monkey 2, Day 2) was 58 ng/mL, the “Pre-Dose Plasma, adjusted free concentration” value ([5]; Monkey 2, Day 3) was 32 ng/mL and the “Pre-Dose Plasma, total concentration” value ([5]; Monkey 2, Day 3) was 87 ng/mL. The “Pre-Dose Plasma, adjusted free concentration” value ([5]; Monkey 2, Day 4) was 27 ng/mL, the “Pre-Dose Plasma, total concentration” value ([5]; Monkey 2, Day 4) was 74 ng/mL and the “Pre-Dose Plasma, adjusted free concentration” value ([5]; Monkey 2, Day 5) was “(24) ng/mL”. For the same compound, the “Pre-Dose Plasma, total concentration” value ([5]; Monkey 2, Day 5) was 66 ng/mL, the “Bulk Brain Homogenate, adjusted free concentration” value ([5]; Monkey 2) was “(29) ng/g” and the “Terminal CSF” value ([5]; Monkey 2) was 25 ng/mL. For the same compound, the “Terminal Plasma, adjusted free concentration” value ([5]; Monkey 2) was “(160) ng/mL”, the “Kp,uu,brain, times higher for niraparib compared to olaparib” value [5, 10] was 15 × and the “detection and distribution in coronal brain sections by MALDI IMS” value [5, 10] was “consistent concentrations distributed throughout the brain parenchyma”. The Kp uu ([5]; Monkey 2, from bulk brain homogenate and terminal plasma free concentrations, read-out: Kp, uu Brain/Plasma) was 0.16, the Kp uu ([5]; mean of Monkey 1 and 2, read-out: Mean Kp, uu Brain/Plasma) was 0.3 and the CC50 [6] was 10 to 100 nM. The “outcome of the 6 patients with ≥6 months follow-up” value ([7]; MGMT-unmethylated PK-responders, niraparib in addition to radiotherapy) was “four are in remission and two had a recurrence of tumor”, the PFS6 ([7]; niraparib with concurrent RT then maintenance, 11 patients, median follow-up 8.1 months) was 64% and the “patients with thrombocytopenia related to niraparib” value ([8]; 6 initial patients enrolled in phase 2, niraparib with concurrent RT) was “Five of the 6”. The “patients with Grade 3 treatment-related adverse event (ALT and AST elevation)” value ([8]; Phase 0, twelve patients, 300 mg QD 4 days) was “one patient”, the “serious AEs after starting dose lowered to 200 mg” value ([8]; both phases) was “no serious AEs were observed thereafter” and the “patients with treatment-related thrombocytopenia” value ([8]; expansion phase, two patients enrolled) was “two patients”. For the same compound, the tolerability [8] was “well-tolerated, with low rates of grade 3+ toxicity”, the tolerability ([8]; listed as Niraparib) was “generally well-tolerated” and the “thrombocytopenia cases deemed serious and life-threatening” value ([8]; of the 5 thrombocytopenia cases in phase 2) was 3/5. For the same compound, the Kp (clinical; [11]) was 7.89, the Kp uu (clinical; [11]) was 1.8 and the Kp (clinical; [12]) was 4.27. The Kp uu (clinical; [12]) was 0.8 and the EC50 (PARP activity) was 4 nM.
